This note sets out measurements from ChEMBL document CHEMBL3585327 (Medchemcomm, 2014).

Assay [1] addresses T1, D(2) dopamine receptor (Homo sapiens, UniProt P14416). The assay can be described thus: Agonist activity at human dopamine D2L receptor expressed in CHO cell membranes after 1 hr by [35S]-GTPgammaS binding assay. The class given is functional. The note with it: for pEC50: read-out: EC50. In general terms: GTPγS resists hydrolysis and so accumulates on activated G proteins.

Assay [2] has as its target T1, D(2) dopamine receptor. The assay can be described thus: Agonist activity at human dopamine D2L receptor expressed in CHO cell membranes after 1 hr by [35S]-GTPgammaS binding assay relative to 100 uM quinelorane. The class given is functional.
Assay [3] deals with T1, D(2) dopamine receptor. The assay can be described thus: Potency index, ratio of quinelorane EC50 to compound EC50 for human dopamine D2L receptor expressed in CHO cell membranes. The class given is cell-based.
The target in assay [4] is T2, D(4) dopamine receptor (Homo sapiens, UniProt P21917).
T2 sequence (P21917 whole entry): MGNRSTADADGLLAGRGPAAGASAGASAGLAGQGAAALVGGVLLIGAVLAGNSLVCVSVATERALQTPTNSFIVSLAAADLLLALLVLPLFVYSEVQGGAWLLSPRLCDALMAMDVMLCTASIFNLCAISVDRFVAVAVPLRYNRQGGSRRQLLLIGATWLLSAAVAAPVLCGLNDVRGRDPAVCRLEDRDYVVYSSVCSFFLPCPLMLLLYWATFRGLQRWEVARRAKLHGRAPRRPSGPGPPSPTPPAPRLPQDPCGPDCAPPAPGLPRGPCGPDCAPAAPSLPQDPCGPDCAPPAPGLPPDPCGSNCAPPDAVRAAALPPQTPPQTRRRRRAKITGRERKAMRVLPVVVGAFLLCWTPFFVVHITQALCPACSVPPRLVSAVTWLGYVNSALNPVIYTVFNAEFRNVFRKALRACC
The assay can be described thus: Binding affinity to human dopamine D4 receptor.

The target of assay [5] is D(1B) dopamine receptor (Homo sapiens, UniProt P21918). The assay can be described thus: Binding affinity to human dopamine D5 receptor.
The target of assay [6] is D(1A) dopamine receptor (Homo sapiens, UniProt P21728). The assay can be described thus: Binding affinity to human dopamine D1 receptor.
For assay [7], the target named is T1, D(2) dopamine receptor. The assay can be described thus: Binding affinity to human dopamine D2 receptor.

pEC50, pKi: −log10 of the molar value.

T1 sequence (P14416 whole entry): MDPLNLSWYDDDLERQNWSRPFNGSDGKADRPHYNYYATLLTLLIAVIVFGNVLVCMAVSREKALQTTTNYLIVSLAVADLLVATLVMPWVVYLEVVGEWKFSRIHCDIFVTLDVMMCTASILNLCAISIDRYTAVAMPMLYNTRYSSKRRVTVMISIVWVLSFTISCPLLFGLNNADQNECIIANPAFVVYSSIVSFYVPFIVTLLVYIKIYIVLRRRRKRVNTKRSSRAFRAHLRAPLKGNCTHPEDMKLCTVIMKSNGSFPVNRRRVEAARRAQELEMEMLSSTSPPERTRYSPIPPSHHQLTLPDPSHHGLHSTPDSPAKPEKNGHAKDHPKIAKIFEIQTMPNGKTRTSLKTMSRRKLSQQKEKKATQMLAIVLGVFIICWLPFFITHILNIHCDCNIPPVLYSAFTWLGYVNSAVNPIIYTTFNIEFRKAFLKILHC
Sequence of D(1B) dopamine receptor (P21918 whole entry): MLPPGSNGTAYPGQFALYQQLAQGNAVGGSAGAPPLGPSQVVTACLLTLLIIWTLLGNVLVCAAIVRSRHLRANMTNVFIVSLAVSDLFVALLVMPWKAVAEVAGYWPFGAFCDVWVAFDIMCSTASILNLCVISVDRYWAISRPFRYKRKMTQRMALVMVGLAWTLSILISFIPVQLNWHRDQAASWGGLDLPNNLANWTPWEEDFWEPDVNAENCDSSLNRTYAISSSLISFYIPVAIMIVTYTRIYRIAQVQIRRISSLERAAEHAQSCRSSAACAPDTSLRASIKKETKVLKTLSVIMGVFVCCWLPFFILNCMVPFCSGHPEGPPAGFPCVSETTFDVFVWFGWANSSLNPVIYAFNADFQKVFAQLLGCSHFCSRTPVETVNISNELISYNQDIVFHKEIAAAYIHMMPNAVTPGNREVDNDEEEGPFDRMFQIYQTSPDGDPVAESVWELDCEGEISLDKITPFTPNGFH
Sequence of D(1A) dopamine receptor (P21728 whole entry): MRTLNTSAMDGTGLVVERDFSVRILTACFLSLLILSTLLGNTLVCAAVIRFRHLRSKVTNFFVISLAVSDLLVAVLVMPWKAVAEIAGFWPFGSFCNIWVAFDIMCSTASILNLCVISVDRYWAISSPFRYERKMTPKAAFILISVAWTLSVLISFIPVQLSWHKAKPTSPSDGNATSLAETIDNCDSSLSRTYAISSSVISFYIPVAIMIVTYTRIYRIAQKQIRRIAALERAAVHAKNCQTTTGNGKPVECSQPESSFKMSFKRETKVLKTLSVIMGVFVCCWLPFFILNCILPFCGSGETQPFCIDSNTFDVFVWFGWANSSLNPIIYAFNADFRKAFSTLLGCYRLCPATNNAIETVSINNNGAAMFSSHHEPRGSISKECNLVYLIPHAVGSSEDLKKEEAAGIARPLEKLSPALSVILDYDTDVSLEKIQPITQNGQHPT

Consider `CCCN(CCCNC(=O)CCCCCCCCCCCCCCC(=O)NCCCN(CCC)CCc1cccc2c1CC(=O)N2)CCc1cccc2c1CC(=O)N2`, for which the pEC50 in assay [1] is 8.21. This compound also yielded a maximal response (Emax) in assay [2] of 85%. Also, the Ratio EC50 in assay [3] is 3.
As to `CCCN(CCCC(=O)OCC)CCc1cccc2c1CC(=O)N2`, in assay [1], the negative-log EC50 (pEC50) was 7.26. The compound further displayed a maximum response (Emax) in assay [2] of 90%.
The like results for `CCCN(CCCNC(=O)CCCCCCC(=O)NCCCN(CCC)CCc1cccc2c1CC(=O)N2)CCc1cccc2c1CC(=O)N2` were, in that order, 7.66 and 99%.
Regarding `CCCN(CCCNC(=O)CCCCCCCCCCCCCCCCCCC(=O)NCCCN(CCC)CCc1cccc2c1CC(=O)N2)CCc1cccc2c1CC(=O)N2`, the pEC50 in assay [1] was 7.85. In assay [2], this compound showed an Emax of 58%. In assay [3], the Ratio EC50 came to 3.
The like results for `CCCN(CCCNC(=O)CCCCCCCCCCC(=O)NCCCN(CCC)CCc1cccc2c1CC(=O)N2)CCc1cccc2c1CC(=O)N2` were, in that order, 8.41, 85% and 3.
With `CCCNCCc1cccc2c1CC(=O)N2`, the pEC50 in assay [1] was 7.07. The compound also registered a maximum response (Emax) in assay [2] of 92%.
The like results for `CCCCCCCCCC(=O)NCCCN(CCC)CCc1cccc2c1CC(=O)N2` were, in that order, 7.38 and 78%.
`CCCN(CCCNC(=O)CCC(=O)O)CCc1cccc2c1CC(=O)N2`: the negative-log EC50 (pEC50) in assay [1] was 5.33. In assay [2], this compound yielded an Emax of 72%.
On the same counts, the results for `CCCN(CCCNC(=O)OC(C)(C)C)CCc1cccc2c1CC(=O)N2` are 6.66 and 69%.
Regarding `CCCN(CCC)CCc1cccc2c1CC(=O)N2` [ROPINIROLE], the negative logarithm of the Ki (pKi) in assay [4] is 8.11; in assay [5] it was 4.38; in assay [6], 4.49; in assay [7], 8.43.
As to `CCCN(CCCNC(=O)OC(C)(C)C)CCc1cccc2c1CC(=O)N2CCCNC(=O)OC(C)(C)C`, the negative-log EC50 (pEC50) in assay [1] was 5.85. Also, in assay [1] (read-out: pEC50 (converted)), the EC50 was 1.45 µM. This compound displayed an Emax in assay [2] of 45%.
For the compound `CCCN(CCCNC(=O)CCC(=O)NCCCN(CCC)CCc1cccc2c1CC(=O)N2)CCc1cccc2c1CC(=O)N2`, the negative logarithm of the EC50 (pEC50) in assay [1] is 7.55. Besides, the Emax in assay [2] amounted to 94%.
For the compound `CCCN1CCC[C@@H]2Cc3nc(N)ncc3C[C@H]21` [QUINELORANE], in assay [1], the pEC50 is 7.35.

The pEC50 is the EC50 on a negative log10 scale, so that one unit is a factor of ten. A word on the Emax: it is the greatest response seen or fitted, relative to the assay's reference. By pKi is commonly meant −log10 of the Ki, conventionally taken in molar units. Higher therefore signals a low Ki.
